The values that follow come from patent US8039670B2, “Analogs of alpha galactosyceramide and uses thereof” (Ludwig Institute for Cancer Research, priority 2005, dated 2011).

Each structure is given as a SMILES string.

The subject of one series is NKT cells. Particulars: cancer patients, after treatment; cited from earlier work.
The target of another series is human CD1d (Homo sapiens, UniProt P15813). Particulars: acyl and sphingosine chains in A′ and C′ pockets; cited from earlier work.
Series [1] can be described thus: Viability of analog-pulsed DC co-cultured with iNKT cells (propidium iodide). The series is classed as cell-based, human. Particulars: human; at concentration of maximal DC maturation; read-out: DC still viable. The method, then: (§1) Different analogs of α-GalCer as indicated or LPS were added to co-cultures of human DC and iNKT cells. (A) Maturation of the DC was assessed after 40 h, gating on CD11c positive cells. Histograms indicate the CD83 and CD86 profiles of DC from different treatments; the percentages indicate the percentage of CD83hi mature DC and the numbers in parenthesis, the mean fluorescence intensity of the population contained within the labeled gate. DC and iNKT cells were co-cultured in the presence of different analogs of α-GalCer for 24 hours. Supernatants were analyzed using ELISA for the presence of (B) IL-12p40 released by the DC and (C) IFN-γ from the iNKT cells. All the compounds tested induced weaker but significant cytokine production than α-GalCer, with the exception of arabinitolceramide. (D) Titration of α-GalCer, OCH or threitolceramide on DCs and co-culture with iNKT cells induces DC maturation in vitro. Cells were co-cultured in the presence of the indicated concentration of analog and the percentages of DC with increased CD83/CD80 are shown. […] Viability of α-GalCer or analog-pulsed DC was assessed after 40 h co-culture in the presence of iNKT cells by flow cytometry. Cells were stained with propidium iodide and the percentage of live CD11c gated cells remaining in the culture are shown.
(§2) To compare the functions of high affinity α-GalCer, intermediate affinity threitolceramide with the known, low affinity analog OCH, the three compounds were titrated onto DC and used to present to iNKT cells. Maturation of DC and DC viability were examined after 48 h.

For another series, the system named is iNKT cell clone. As to the kind of experiment: Cytokine release from iNKT cell clone stimulated with analog-pulsed C1R-human CD1d cells. The format is cell-based. The method, then: FIG. 9 Inositol-based α-GalCer derivatives are functional in vitro. Human monocyte-derived DC were pulsed with 150 ng of different inositol analogs and co-cultured with iNKT cells for 24 h. […] Numbers indicate the mean fluorescence intensity of the histogram gated on CD11c^+ cells. 6-Deoxy and 6-Sulfono-myo-inositolceramide induce significant (B) IL-12p40 and (C) IFN-γ production by DC and iNKT cells respectively in the supernatants of co-cultured DC and iNKT cells. […] Release of (D) IFN-g and (E) IL-4 from iNKT cells after 24 h in culture with C1R-human CD1d cells pulsed with α-GalCer, 6-Deoxy- or 6-Sulfono-myo-inositolceramide.
The three inositol compounds were titrated on C1R cells expressing human CD1d and used to stimulate an iNKT cell clone.

The next series relates to OVA-specific IgGs. In words: OVA-specific IgG in serum after co-administration with OVA (ELISA, FIG. 7B). The series is classed as in vivo, mice. Particulars: 1 μg with 400 μg OVA, bled 11-14d. The method, then: (A) C57BL/6 or iNKT^−/− mice were injected i.v. with 1 μg of vehicle, α-GalCer, analog or 25 μg MPL. Twenty hours after injection splenocytes were stained with antibodies against B220 and CD86 and analyzed by flow cytometry. Maturation was assessed by the upregulation of CD86 at the cell surface, gating on B cells (B220^+). Mean fluorescence intensity for each histogram is indicated. […] Mice were bled 11-14d after administration and the serum tested by ELISA for antibodies. Briefly, ELISA plates were coated with 10 μg/ml OVA and then serial dilutions of sera added and incubated overnight at 4° C. before detecting with an HRP-conjugated sheep anti-mouse IgG.
Non-glycolipid analogs of α-GalCer stimulate B cell maturation in the presence of iNKT cells in vivo and subsequent antibody production. (A) C57BL/6 or iNKT^−/− mice were injected i.v. with 1 μg of vehicle, α-GalCer, analog or 25 μg MPL. Twenty hours after injection splenocytes were stained with antibodies against B220 and CD86 and analyzed by flow cytometry. Maturation was assessed by the upregulation of CD86 at the cell surface, gating on B cells (B220^+) (FIG. 7 A). Mean fluorescence intensity for each histogram is indicated. […] Mice were bled 11-14d after administration and the serum tested by ELISA for antibodies (FIG. 7 B).

The subject of another series is DC. In words: Viability of analog-pulsed DC co-cultured with iNKT cells (propidium iodide). The series is classed as cell-based, human. Particulars: at concentration of maximal DC maturation. The method, then:
as §1, §2

Another series relates to IL-12 p70 protein. As to the kind of experiment: Example F: IL-12 p70 in tail blood six hours after injection (ELISA). The series is classed as in vivo. Particulars: 1 μg or 10 μg. The method, then: These experiments were performed to determine the effect of selected compounds of the invention in stimulating the production of IL-12 production in subject animals. The animals received 1 μg or 10 μg of threitol, glycerol or Gal-Cer. One group of animals also received 50 μg of MPL. Six hours following injection, tail blood samples were collected and the IL-12 p70 protein was determined using an ELISA all in accordance with standard procedures.

Chain of human CD1d (P15813 20-301 limits assumed): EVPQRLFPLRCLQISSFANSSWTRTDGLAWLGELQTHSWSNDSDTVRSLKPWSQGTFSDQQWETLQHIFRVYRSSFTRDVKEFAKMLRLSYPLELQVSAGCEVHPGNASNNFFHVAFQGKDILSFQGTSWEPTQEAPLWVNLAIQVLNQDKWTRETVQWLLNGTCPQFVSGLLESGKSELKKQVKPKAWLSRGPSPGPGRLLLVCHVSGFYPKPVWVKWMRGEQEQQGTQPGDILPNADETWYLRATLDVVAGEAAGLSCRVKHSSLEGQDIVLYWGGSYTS
Chain of human CD1d (P61769 21-119 partner): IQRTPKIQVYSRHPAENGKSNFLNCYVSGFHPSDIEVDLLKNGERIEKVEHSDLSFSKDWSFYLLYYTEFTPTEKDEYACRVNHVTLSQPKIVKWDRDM

Take `CCCCCCCCCCCCCCCCCCCCCCCCCC(=O)N[C@@H](CO[C@H]1OC(CO)[C@H](O)C(O)C1O)[C@H](O)[C@H](O)CCCCCCCCCCCCCC` (stereo partly drawn) [α-GalCer, α galactosylceramide, reference compound]: in the series on NKT cells, the “time until NKT cells in peripheral blood fell to undetectable levels” value is at most 24 h. In addition, the “shape complementarity (Sc)” value at human CD1d is given as 0.61. Moreover, the viability at 48 h, 0.8 ng/ml in series [1] was 10%. For the same compound, the “concentration at which IFN-γ and IL-4 approach a plateau” value with iNKT cell clone amounted to 200 ng/mL. The “OVA-specific IgGs” value in the series on OVA-specific IgGs is reported as “induces significant OVA-specific IgGs”.

With `CCCCCCCCCCCCCCCCCCCCCCCCCC(=O)N[C@@H](COC[C@H](O)[C@@H](O)CO)[C@H](O)[C@H](O)CCCCCCCCCCCCCC` [Compound 3, Threitol Ceramide], the “DC viability (propidium iodide negative) compared with α-GalCer” value in the series with DC was “significantly greater proportion of DC were propidium iodide negative”. Also, the IL-12/p70 secretion result in the series on IL-12 p70 protein was “Dose dependent increases in IL-12/p70 secretion”.
